Laboratory results published in patent US12319652B2, “Salts and solid forms of (R)-1-(5-methoxy-1H-indol-1-yl)-N,N-dimethylpropan-2-amine” (priority 2021, dated 2025).
Read-outs that look alike come from different tables or passages of the source.

Assays:
[1] = format: physicochemical
Protocol: Equilibrium Humidity Evaluation (40° C./75% RH for 10 Days)
100 mg portions of compound 1 salts (for inputs see table below) were placed in the relevant open vials. The powders were finely divided and distributed evenly over the base of the vial, such that equal material coverage across the panel was observed. These samples were then maintained 40°C. under 75% RH. The samples were sub-sampled at intervals of 5 and 10 days and analysed by ^1H NMR, HPLC, XRPD, DSC, TGA and PLM, for evidence of phase change or chemical degradation (FIG. 269-297).

[2] = Dynamic vapor sorption (DVS); format: physicochemical
Protocol: There are two main methods to use, one is by time where the equilibration is given by a fixed time, i.e., 1 hour per step and is appropriate for an unknown phase. The second, is by mass per time unit (dm/dt) of 0.002%/min; that is when the difference in weight is less than 0.002%, the instrument moves onto the next step. For unknown hygroscopicity, the method by time is indicated because it gives an idea of water affinity without wasting much time. Ideally the analyses are repeated using the mass equilibration method to confirm. By experience for hygroscopic samples, the analysis can continue for days. For non-hygroscopic samples the difference between the two methods may not be significant.
Consequently, amorphous batch 1 was analyzed by the fixed time method and once compound 1 fumarate crystalline polymorphic Form A was generated the analyses was repeated as mass per unit time equilibrated @dm/dt ([…]) and is given below (refer to FIG. 12).
(§1) The moisture sorption properties of the feed API were analysed by DVS Intrinsic instrument (Surface Measurement System). Approximately 20 to 50 mg of API was weighed onto an aluminium pan and loaded into the instrument equilibrated at 25° C. The sample was equilibrated under a dry atmosphere (0% relative humidity) for 60 minutes, before increasing the humidity from 0% to 30% at 5%4 step increment and from 30% to 90% at 10% step increment. A desorption cycle was also applied from 90% to 30% (10% step decrement) and from 30% to 0% (5% step decrement). A rate of change in mass per time unit (dm/dt) of 0.002%/min was set as the equilibrium parameter. Kinetic and isotherm graphs were calculated.
Specimens were equilibrated at 0% RH for 60 min, prior to DVS analyses (stepped increment % RH up to 90% RH and stepped decrement % RH down to 0% RH.
as §1, with “5%” for “5%4”

COc1ccc2c(ccn2C[C@@H](C)N(C)C)c1.O=C(O)c1ccccc1 [Benzoate salt]
HPLC peak RRT 1.00 (reference peak) ([1]; salt before storage (t = 0)): 99.64
HPLC peak RRT 1.09 ([1]; salt before storage (t = 0)): 0.03
HPLC peak RRT 1.16 ([1]; salt before storage (t = 0)): 0.03
HPLC peak RRT 1.19 ([1]; salt before storage (t = 0)): 0.10
HPLC peak RRT 1.20 ([1]; salt before storage (t = 0)): 0.02
HPLC peak RRT 1.24 ([1]; salt before storage (t = 0)): 0.06
HPLC peak RRT 1.26 ([1]; salt before storage (t = 0)): 0.01
HPLC peak RRT 1.35 ([1]; salt before storage (t = 0)): 0.10
HPLC peak RRT 0.98 ([1]; t = 5 d at 75% RH at 40° C.): 0.04
HPLC peak RRT 1.00 (reference peak) ([1]; t = 5 d at 75% RH at 40° C.): 99.64
HPLC peak RRT 1.16 ([1]; t = 5 d at 75% RH at 40° C.): 0.03
HPLC peak RRT 1.19 ([1]; t = 5 d at 75% RH at 40° C.): 0.10
HPLC peak RRT 1.20 ([1]; t = 5 d at 75% RH at 40° C.): 0.02
HPLC peak RRT 1.26 ([1]; t = 5 d at 75% RH at 40° C.): 0.05
HPLC peak RRT 1.35 ([1]; t = 5 d at 75% RH at 40° C.): 0.11
HPLC peak RRT 0.98 ([1]; t = 10 d at 75% RH at 40° C.): 0.04
HPLC peak RRT 1.00 (reference peak) ([1]; t = 10 d at 75% RH at 40° C.): 99.52
HPLC peak RRT 1.08 ([1]; t = 10 d at 75% RH at 40° C.): 0.05
HPLC peak RRT 1.16 ([1]; t = 10 d at 75% RH at 40° C.): 0.04
HPLC peak RRT 1.19 ([1]; t = 10 d at 75% RH at 40° C.): 0.13
HPLC peak RRT 1.20 ([1]; t = 10 d at 75% RH at 40° C.): 0.02
HPLC peak RRT 1.26 ([1]; t = 10 d at 75% RH at 40° C.): 0.07
HPLC peak RRT 1.35 ([1]; t = 10 d at 75% RH at 40° C.): 0.12

COc1ccc2c(ccn2C[C@@H](C)N(C)C)c1.Cl [Compound 1 HCl (Form A)]
DVS 0 to 90 to 0% RH (dm/dt <0.002%) ([2]; 0.0% RH, sorption): DVS 0 to 90 to 0% RH (dm/dt <0.002%): 0.0 (0.00%), 5.0 (0.00%),
DVS 0 to 90 to 0% RH (dm/dt <0.002%) ([2]; 5.0% RH, desorption): 0.03%
DVS 0 to 90 to 0% RH (dm/dt <0.002%) ([2]; 5.0% RH, sorption): DVS 0 to 90 to 0% RH (dm/dt <0.002%): 0.0 (0.00%), 5.0 (0.00%),
DVS 0 to 90 to 0% RH (dm/dt <0.002%) ([2]; 10.0% RH, desorption): 0.04%
DVS 0 to 90 to 0% RH (dm/dt <0.002%) ([2]; 10.0% RH, sorption): 0.02%
DVS 0 to 90 to 0% RH (dm/dt <0.002%) ([2]; 15.0% RH, desorption): 0.05%
DVS 0 to 90 to 0% RH (dm/dt <0.002%) ([2]; 15.0% RH, sorption): 0.02%
DVS 0 to 90 to 0% RH (dm/dt <0.002%) ([2]; 20.0% RH, desorption): 0.06%
DVS 0 to 90 to 0% RH (dm/dt <0.002%) ([2]; 20.0% RH, sorption): 0.03%
DVS 0 to 90 to 0% RH (dm/dt <0.002%) ([2]; 25.0% RH, desorption): 0.07%
DVS 0 to 90 to 0% RH (dm/dt <0.002%) ([2]; 25.0% RH, sorption): 0.04%
DVS 0 to 90 to 0% RH (dm/dt <0.002%) ([2]; 30.0% RH, desorption): 0.09%
DVS 0 to 90 to 0% RH (dm/dt <0.002%) ([2]; 30.0% RH, sorption): 0.05%
DVS 0 to 90 to 0% RH (dm/dt <0.002%) ([2]; 40.0% RH, desorption): 0.10%
DVS 0 to 90 to 0% RH (dm/dt <0.002%) ([2]; 40.0% RH, sorption): 0.07%
DVS 0 to 90 to 0% RH (dm/dt <0.002%) ([2]; 50.0% RH, desorption): 0.14%
DVS 0 to 90 to 0% RH (dm/dt <0.002%) ([2]; 50.0% RH, sorption): 0.10%
DVS 0 to 90 to 0% RH (dm/dt <0.002%) ([2]; 60.0% RH, desorption): 0.17%
DVS 0 to 90 to 0% RH (dm/dt <0.002%) ([2]; 60.0% RH, sorption): 0.14%
DVS 0 to 90 to 0% RH (dm/dt <0.002%) ([2]; 70.0% RH, desorption): 0.22%
DVS 0 to 90 to 0% RH (dm/dt <0.002%) ([2]; 70.0% RH, sorption): 0.19%
DVS 0 to 90 to 0% RH (dm/dt <0.002%) ([2]; 80.0% RH, desorption): 0.29%
DVS 0 to 90 to 0% RH (dm/dt <0.002%) ([2]; 80.0% RH, sorption): 0.26%
DVS 0 to 90 to 0% RH (dm/dt <0.002%) ([2]; 90.0% RH, desorption): 0.46%
DVS 0 to 90 to 0% RH (dm/dt <0.002%) ([2]; 90.0% RH, sorption): 0.46%

COc1ccc2c(ccn2C[C@@H](C)N(C)C)c1.Cl [HCl salt]
HPLC peak RRT 0.93 ([1]; salt before storage (t = 0)): 0.01
HPLC peak RRT 0.98 ([1]; salt before storage (t = 0)): 0.02
HPLC peak RRT 0.99 ([1]; salt before storage (t = 0)): 0.01
HPLC peak RRT 1.00 (reference peak) ([1]; salt before storage (t = 0)): 99.60
HPLC peak RRT 1.20 ([1]; salt before storage (t = 0)): 0.01
HPLC peak RRT 1.22 ([1]; salt before storage (t = 0)): 0.11
HPLC peak RRT 1.26 ([1]; salt before storage (t = 0)): 0.16
HPLC peak RRT 1.30 ([1]; salt before storage (t = 0)): 0.03
HPLC peak RRT 1.32 ([1]; salt before storage (t = 0)): 0.01
HPLC peak RRT 1.35 ([1]; salt before storage (t = 0)): 0.04
HPLC peak RRT 0.93 ([1]; t = 5 d at 75% RH at 40° C.): 0.05
HPLC peak RRT 0.98 ([1]; t = 5 d at 75% RH at 40° C.): 0.02
HPLC peak RRT 1.00 (reference peak) ([1]; t = 5 d at 75% RH at 40° C.): 99.42
HPLC peak RRT 1.20 ([1]; t = 5 d at 75% RH at 40° C.): 0.02
HPLC peak RRT 1.22 ([1]; t = 5 d at 75% RH at 40° C.): 0.42
HPLC peak RRT 1.26 ([1]; t = 5 d at 75% RH at 40° C.): 0.02
HPLC peak RRT 1.28 ([1]; t = 5 d at 75% RH at 40° C.): 0.02
HPLC peak RRT 1.35 ([1]; t = 5 d at 75% RH at 40° C.): 0.04
HPLC peak RRT 0.93 ([1]; t = 10 d at 75% RH at 40° C.): 0.05
HPLC peak RRT 0.98 ([1]; t = 10 d at 75% RH at 40° C.): 0.01
HPLC peak RRT 1.00 (reference peak) ([1]; t = 10 d at 75% RH at 40° C.): 99.60
HPLC peak RRT 1.22 ([1]; t = 10 d at 75% RH at 40° C.): 0.31
HPLC peak RRT 1.35 ([1]; t = 10 d at 75% RH at 40° C.): 0.02

COc1ccc2c(ccn2C[C@@H](C)N(C)C)c1.O=C(O)/C=C\C(=O)O [Maleate salt]
HPLC peak RRT 0.93 ([1]; salt before storage (t = 0)): 0.03
HPLC peak RRT 0.98 ([1]; salt before storage (t = 0)): 0.06
HPLC peak RRT 1.00 (reference peak) ([1]; salt before storage (t = 0)): 99.22
HPLC peak RRT 1.10 ([1]; salt before storage (t = 0)): 0.28
HPLC peak RRT 1.13 ([1]; salt before storage (t = 0)): 0.14
HPLC peak RRT 1.17 ([1]; salt before storage (t = 0)): 0.02
HPLC peak RRT 1.18 ([1]; salt before storage (t = 0)): 0.03
HPLC peak RRT 1.19 ([1]; salt before storage (t = 0)): 0.08
HPLC peak RRT 1.25 ([1]; salt before storage (t = 0)): 0.03
HPLC peak RRT 1.34 ([1]; salt before storage (t = 0)): 0.11
HPLC peak RRT 0.84 ([1]; t = 5 d at 75% RH at 40° C.): 0.31
HPLC peak RRT 0.93 ([1]; t = 5 d at 75% RH at 40° C.): 0.05
HPLC peak RRT 0.98 ([1]; t = 5 d at 75% RH at 40° C.): 0.03
HPLC peak RRT 1.00 (reference peak) ([1]; t = 5 d at 75% RH at 40° C.): 99.09
HPLC peak RRT 1.13 ([1]; t = 5 d at 75% RH at 40° C.): 0.21
HPLC peak RRT 1.19 ([1]; t = 5 d at 75% RH at 40° C.): 0.10
HPLC peak RRT 1.34 ([1]; t = 5 d at 75% RH at 40° C.): 0.22
HPLC peak RRT 0.84 ([1]; t = 10 d at 75% RH at 40° C.): 0.65
HPLC peak RRT 0.93 ([1]; t = 10 d at 75% RH at 40° C.): 0.06
HPLC peak RRT 0.98 ([1]; t = 10 d at 75% RH at 40° C.): 0.05
HPLC peak RRT 1.00 (reference peak) ([1]; t = 10 d at 75% RH at 40° C.): 98.30
HPLC peak RRT 1.13 ([1]; t = 10 d at 75% RH at 40° C.): 0.33
HPLC peak RRT 1.19 ([1]; t = 10 d at 75% RH at 40° C.): 0.09
HPLC peak RRT 1.22 ([1]; t = 10 d at 75% RH at 40° C.): 0.09
HPLC peak RRT 1.25 ([1]; t = 10 d at 75% RH at 40° C.): 0.02
HPLC peak RRT 1.26 ([1]; t = 10 d at 75% RH at 40° C.): 0.06
HPLC peak RRT 1.28 ([1]; t = 10 d at 75% RH at 40° C.): 0.05
HPLC peak RRT 1.32 ([1]; t = 10 d at 75% RH at 40° C.): 0.10
HPLC peak RRT 1.34 ([1]; t = 10 d at 75% RH at 40° C.): 0.19
